Experimental findings from US20240425480A1, “NOVEL PYRIDINE DERIVATIVE COMPOUND AS RON INHIBITOR” (LG CHEM, LTD., priority 2021, published 2024) are described below.

One assay deals with cMET (Homo sapiens, UniProt P08581). The assay is described as follows: Inhibitory activity against MET (cMET), TR-FRET kinase assay. The class given is biochemical. As to conditions: TR-FRET enzyme assay. Here is the method: In addition, in order to measure the enzyme activity inhibition for cMET, the evaluation was performed in the same manner as the enzyme activity inhibition measurement experiment for RON.
cMET, sequence (P08581 25-1390): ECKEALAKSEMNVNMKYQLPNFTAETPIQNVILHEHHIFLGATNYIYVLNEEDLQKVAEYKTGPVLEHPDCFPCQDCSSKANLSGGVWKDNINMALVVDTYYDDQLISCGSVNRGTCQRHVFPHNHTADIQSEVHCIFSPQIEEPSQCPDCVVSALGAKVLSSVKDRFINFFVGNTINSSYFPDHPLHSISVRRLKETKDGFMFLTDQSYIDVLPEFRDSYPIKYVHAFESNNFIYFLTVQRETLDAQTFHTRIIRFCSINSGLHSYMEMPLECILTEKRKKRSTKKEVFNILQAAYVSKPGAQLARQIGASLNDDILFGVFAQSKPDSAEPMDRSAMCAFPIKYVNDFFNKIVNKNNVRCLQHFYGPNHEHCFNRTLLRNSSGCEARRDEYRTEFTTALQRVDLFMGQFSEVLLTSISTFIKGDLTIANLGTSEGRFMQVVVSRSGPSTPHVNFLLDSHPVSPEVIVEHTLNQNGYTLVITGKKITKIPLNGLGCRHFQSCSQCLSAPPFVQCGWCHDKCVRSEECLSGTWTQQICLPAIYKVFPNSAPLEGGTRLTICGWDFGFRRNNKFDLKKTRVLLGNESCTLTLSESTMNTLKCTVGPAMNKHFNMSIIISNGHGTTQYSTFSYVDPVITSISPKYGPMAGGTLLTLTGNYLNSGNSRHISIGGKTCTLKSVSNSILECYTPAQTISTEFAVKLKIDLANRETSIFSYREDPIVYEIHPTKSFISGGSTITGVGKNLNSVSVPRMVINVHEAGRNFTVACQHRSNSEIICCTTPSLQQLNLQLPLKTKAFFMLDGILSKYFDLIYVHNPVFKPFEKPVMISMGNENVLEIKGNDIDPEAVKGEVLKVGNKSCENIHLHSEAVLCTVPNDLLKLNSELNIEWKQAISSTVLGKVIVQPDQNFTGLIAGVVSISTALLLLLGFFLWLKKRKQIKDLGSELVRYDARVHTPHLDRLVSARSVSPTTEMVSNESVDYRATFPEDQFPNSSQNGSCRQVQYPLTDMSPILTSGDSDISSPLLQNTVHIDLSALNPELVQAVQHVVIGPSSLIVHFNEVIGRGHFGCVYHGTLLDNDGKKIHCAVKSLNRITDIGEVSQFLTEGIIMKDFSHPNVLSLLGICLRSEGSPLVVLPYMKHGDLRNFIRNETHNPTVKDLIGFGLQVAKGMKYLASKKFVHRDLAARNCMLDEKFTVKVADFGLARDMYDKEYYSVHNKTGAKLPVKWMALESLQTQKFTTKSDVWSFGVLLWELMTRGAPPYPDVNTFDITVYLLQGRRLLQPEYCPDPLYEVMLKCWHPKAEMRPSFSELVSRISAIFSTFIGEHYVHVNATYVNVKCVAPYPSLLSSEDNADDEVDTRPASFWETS
Specifically, the compound was prepared to a concentration of 1 mM in 100% DMSO and was diluted 10 times in a stepwise manner through 3-fold dilution. The compound (2 ul) diluted in a stepwise manner was added to a 96-well-plate containing 48 ul of a 1×kinase reaction buffer (50 mM HEPES (pH 7.4), 0.05% BSA, 0.005% Tween-20, 1 mM DTT, 0.5 mM MnCl2, 20 mM MgCl2).
The cMET protein was diluted to a concentration of 263 nM in a cMET storage buffer (50 mM Tris-HCl (pH 7.5), 150 mM NaCl, 0.05% Brij35, 1 mM DTT, 10% Glycerol), and then diluted again to a concentration of 2 nM in a 1×kinase reaction buffer. As a substrate cocktail, a MET-specific substrate mixed solution (5 uM TK peptide, 10 mM ATP) was prepared at a concentration 2 times the final reaction concentration.
(§1) Thereafter, a 384-well-plate was prepared, and 2.5 μl of each of the diluted compounds of Examples was added to a corresponding well of experimental group wells, and 2.5 μl of a 4% DMSO solution was dispensed into high control wells and low control wells.
(§2) Thereafter, 2.5 μL of 2 nM cMET was dispensed into each of the high control wells and the experimental group wells, and 2.5 μL of the 1× kinase reaction buffer was added to the low control wells, and all the wells were centrifuged at room temperature for 40 seconds at 1,000 RPM, and then incubated at room temperature for 20-30 minutes. Then, 5 μL of the substrate cocktail (2×) was dispensed into each well, and all the wells were centrifuged at room temperature for 40 seconds at 1,000 RPM, and then incubated at room temperature for 60 minutes. Thereafter, 5 μL of 90 mM EDTA was added to each well to terminate the reaction, and all the wells were then incubated again at room temperature for 5 minutes. Thereafter, 5 μL of a 4×phosphotyrosine antibody (Perkin Elmer) containing europium was added to each well, and all the wells were then incubated at room temperature for 60 minutes. After the incubation, the 384-well-plate was read with the Vison plate reader. In this case, the excitation wavelength was 340 nm, and the emission wavelength was 620 nm and 665 nm. The pe50 value of each compound of Examples was derived using the GraphPd Prism7 program.
In general terms: TR-FRET usually uses a lanthanide donor and a delayed reading to cut background.

Another assay concerns the target RON (Homo sapiens, UniProt Q04912). As to the kind of experiment: Inhibitory activity against RON, TR-FRET kinase assay. As to conditions: TR-FRET enzyme assay. It counts as biochemical. The method, then: In order to measure the inhibitory activity of each of the compounds of Examples against RON, the IC50 of each of the compounds was measured using Time-resolved fluorescence energy transfer (TR-FRET).
Specifically, the compound was prepared to a concentration of 1 mM in 100% DMSO and was diluted 10 times in a stepwise manner through 3-fold dilution. The compound (2 ul) diluted in a stepwise manner was added to a 96-well-plate containing 48 ul of a 1× kinase reaction buffer (50 mM HEPES (pH 7.4), 0.01% Tween-20, 5 mM DTT, 0.5 mM Na3VO4, 2 mM EGTA, 10 mM MgCl2).
The RON protein was diluted to a concentration of 49.3 nM in a RON storage buffer (50 mM Tris-HCl (pH 7.5), 150 mM NaCl, 0.5 mM EDTA, 0.02% Triton X-100), and then diluted again to a concentration of 0.4 nM in a 1×kinase reaction buffer. As a substrate cocktail, a RON-specific substrate mixed solution (40 uM ULight-labeled Poly GT, 100 nM ATP) was prepared at a concentration 2 times the final reaction concentration.
as §1
as §2, with “of 0.4” for “of 2”, “nM RON” for “nM cMET”, “of 30” for “of 90”, “The IC50” for “The pe50”

As usually defined, the IC50 is the concentration that inhibits the measured activity by half. Lower therefore signals greater potency in that assay.

RON, sequence (Q04912 25-1400, species assumed): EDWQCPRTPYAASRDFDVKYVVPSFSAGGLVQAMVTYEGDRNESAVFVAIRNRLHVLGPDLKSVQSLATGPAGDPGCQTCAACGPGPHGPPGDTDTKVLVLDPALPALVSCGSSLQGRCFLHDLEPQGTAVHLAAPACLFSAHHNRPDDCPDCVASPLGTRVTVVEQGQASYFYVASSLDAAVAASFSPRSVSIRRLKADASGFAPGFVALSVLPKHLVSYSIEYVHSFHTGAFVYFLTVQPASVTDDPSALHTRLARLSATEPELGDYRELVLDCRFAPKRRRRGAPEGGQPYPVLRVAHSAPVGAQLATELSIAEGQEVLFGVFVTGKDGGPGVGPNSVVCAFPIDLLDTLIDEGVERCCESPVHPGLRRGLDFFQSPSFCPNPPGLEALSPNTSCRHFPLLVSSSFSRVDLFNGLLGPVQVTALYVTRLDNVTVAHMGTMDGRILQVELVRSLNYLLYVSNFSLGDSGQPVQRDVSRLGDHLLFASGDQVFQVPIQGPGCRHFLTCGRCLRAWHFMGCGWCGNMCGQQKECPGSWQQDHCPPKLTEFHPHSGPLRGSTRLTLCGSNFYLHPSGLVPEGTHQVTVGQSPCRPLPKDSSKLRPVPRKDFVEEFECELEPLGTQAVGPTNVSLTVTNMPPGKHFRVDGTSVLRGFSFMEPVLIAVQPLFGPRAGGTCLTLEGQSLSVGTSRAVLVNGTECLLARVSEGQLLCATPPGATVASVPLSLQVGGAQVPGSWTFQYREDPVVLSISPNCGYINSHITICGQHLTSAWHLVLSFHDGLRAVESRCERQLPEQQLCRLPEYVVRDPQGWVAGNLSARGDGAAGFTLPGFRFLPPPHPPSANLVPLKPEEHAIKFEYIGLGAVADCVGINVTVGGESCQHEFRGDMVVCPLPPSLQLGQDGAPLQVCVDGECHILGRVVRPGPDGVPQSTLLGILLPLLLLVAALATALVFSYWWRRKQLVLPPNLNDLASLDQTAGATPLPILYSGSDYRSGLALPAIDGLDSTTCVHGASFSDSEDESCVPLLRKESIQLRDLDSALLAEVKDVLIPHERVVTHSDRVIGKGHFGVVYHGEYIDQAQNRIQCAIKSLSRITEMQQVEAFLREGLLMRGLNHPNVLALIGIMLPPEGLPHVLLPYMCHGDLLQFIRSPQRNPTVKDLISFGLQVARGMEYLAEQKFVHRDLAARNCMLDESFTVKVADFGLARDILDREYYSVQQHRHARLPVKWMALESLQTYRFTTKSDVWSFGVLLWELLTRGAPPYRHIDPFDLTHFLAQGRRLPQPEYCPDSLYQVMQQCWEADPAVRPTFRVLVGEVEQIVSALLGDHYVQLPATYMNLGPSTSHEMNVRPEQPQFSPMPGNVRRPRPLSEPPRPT

For the compound `Nc1nccc(Oc2ccc(NC(=O)c3cnn(-c4ncccc4F)c3C(F)(F)F)cc2F)c1Cl` [Example 8, N-(4-((2-amino-3-chloropyridin-4-yl)oxy)-3-fluorophenyl)-1-(3-fluoropyridin-2-yl)-5-(trifluoromethyl)-1H-pyrazole-4-carboxamide], the IC50 against cMET is 500 to 5000 nM; against RON it was under 50 nM.

Turning to `O=C(Nc1ccc(Oc2ncnc(NC3CC3)c2Cl)c(F)c1)c1cnn(-c2ncccc2Cl)c1C(F)(F)F` [Example 66, N-[4-[5-chloro-6-(cyclopropylamino)pyrimidin-4-yl]oxy-3-fluoro-phenyl]-1-(3-chloro-2-pyridyl)-5-(trifluoromethyl)pyrazole-4-carboxamide], the IC50 against cMET and against RON was over 5000 nM each time.

With `Cc1ccnc(-n2ncc(C(=O)Nc3ccc(Oc4ccnc(N)c4Cl)c(F)c3)c2C(F)(F)F)c1` [Example 12, N-(4-((2-amino-3-chloropyridin-4-yl)oxy)-3-fluorophenyl)-1-(4-methylpyridin-2-yl)-5-(trifluoromethyl)-1H-pyrazole-4-carboxamide], the results for the IC50 at cMET and at RON were 500 to 5000 nM and 50 to 500 nM, respectively.

In the case of `O=C(Nc1ccc(Oc2ncnc(NC3CC3)c2Cl)c(F)c1)c1cnn(-c2ncccc2F)c1C(F)(F)F` [Example 65, N-[4-[5-chloro-6-(cyclopropylamino)pyrimidin-4-yl]oxy-3-fluoro-phenyl]-1-(3-fluoro-2-pyridyl)-5-(trifluoromethyl)pyrazole-4-carboxamide], the IC50 against cMET is over 5000 nM; at RON it was 500 to 5000 nM.

On to `Nc1ncnc(Oc2ccc(NC(=O)c3cnn(-c4cccnn4)c3C(F)(F)F)cc2F)c1Cl` [Example 60, N-[4-(6-amino-5-chloro-pyrimidin-4-yl)oxy-3-fluoro-phenyl]-1-pyridazin-3-yl-5-(trifluoromethyl)pyrazole-4-carboxamide], for which the concentration for half-maximal inhibition (IC50) at cMET is over 5000 nM; against RON it was 50 to 500 nM.

On to `Nc1ncnc(Oc2ccc(NC(=O)c3cnn(-c4ncccc4C(F)(F)F)c3C(F)(F)F)cc2F)c1Cl` [Example 53, N-[4-(6-amino-5-chloro-pyrimidin-4-yl)oxy-3-fluoro-phenyl]-5-(trifluoromethyl)-1-[3-(trifluoromethyl)-2-pyridyl]pyrazole-4-carboxamide], for which the results for the IC50 against cMET and on RON were 500 to 5000 nM and 50 to 500 nM, respectively.

Regarding `Nc1nccc(Oc2ccc(NC(=O)c3cnn(-c4cc(F)ccn4)c3C(F)(F)F)cc2F)c1Cl` [Example 25, N-(4-((2-amino-3-chloropyridin-4-yl)oxy)-3-fluorophenyl)-1-(4-fluoropyridin-2-yl)-5-(trifluoromethyl)-1H-pyrazole-4-carboxamide], the IC50 against cMET was over 5000 nM; against RON it was under 50 nM.

Take `Nc1nccc(Oc2ccc(NC(=O)c3cnn(-c4ncc(O)cn4)c3C(F)(F)F)cc2F)c1Cl` [Example 27, N-(4-((2-amino-3-chloropyridin-4-yl)oxy)-3-fluorophenyl)-1-(5-hydroxypyrimidin-2-yl)-5-(trifluoromethyl)-1H-pyrazole-4-carboxamide]: the IC50 at cMET was over 5000 nM; against RON, 50 to 500 nM.

Consider `CCc1c(C(=O)Nc2ccc(Oc3ccnc(N)c3Cl)c(F)c2)cnn1-c1cccnc1` [Example 5, N-(4-((2-amino-3-chloropyridin-4-yl)oxy)-3-fluorophenyl)-5-ethyl-1-(pyridin-3-yl)-1H-pyrazole-4-carboxamide], for which the IC50 against cMET was 500 to 5000 nM; against RON, 50 to 500 nM.

With `Nc1nccc(Oc2ccc(NC(=O)c3cnn(-c4ccncn4)c3C(F)(F)F)cc2F)c1Cl` [Example 22, N-(4-((2-amino-3-chloropyridin-4-yl)oxy)-3-fluorophenyl)-1-(pyrimidin-4-yl)-5-(trifluoromethyl)-1H-pyrazole-4-carboxamide], the figures for the IC50 on cMET and against RON were over 5000 nM and 50 to 500 nM, respectively.

For the compound `Nc1nccc(Oc2ccc(NC(=O)c3cnn(-c4nc(-c5ccccc5)cs4)c3C(F)(F)F)cc2F)c1Cl` [Example 3, N-(4-((2-amino-3-chloropyridin-4-yl)oxy)-3-fluorophenyl)-1-(4-phenylthiazol-2-yl)-5-(trifluoromethyl)-1H-pyrazole-4-carboxamide], the IC50 on cMET and against RON was over 5000 nM throughout.

Take `Nc1ncnc(Oc2ccc(NC(=O)c3cnn(-c4cccnc4)c3C(F)(F)F)cc2F)c1Cl` [Example 56, N-[4-(6-amino-5-chloro-pyrimidin-4-yl)oxy-3-fluoro-phenyl]-1-(3-pyridyl)-5-(trifluoromethyl)pyrazole-4-carboxamide]: the IC50 against cMET is over 5000 nM; against RON it was 50 to 500 nM.

On to `COc1cccnc1-n1ncc(C(=O)Nc2ccc(Oc3ncnc(N)c3Cl)c(F)c2)c1C(F)(F)F` [Example 54, N-[4-(6-amino-5-chloro-pyrimidin-4-yl)oxy-3-fluoro-phenyl]-1-(3-methoxy-2-pyridyl)-5-(trifluoromethyl)pyrazole-4-carboxamide], for which the half-maximal inhibitory concentration (IC50) on cMET was over 5000 nM; at RON it was 50 to 500 nM.

`Cc1ccnc(-n2ncc(C(=O)Nc3ccc(Oc4ncnc(N)c4Cl)c(F)c3)c2C(F)(F)F)c1` [Example 47, N-[4-(6-amino-5-chloro-pyrimidin-4-yl)oxy-3-fluoro-phenyl]-1-(4-methyl-2-pyridyl)-5-(trifluoromethyl)pyrazole-4-carboxamide]: the IC50 at cMET was over 5000 nM; at RON, 50 to 500 nM.

With `CCOc1cccnc1-n1ncc(C(=O)Nc2ccc(Oc3ccnc(N)c3Cl)c(F)c2)c1C(F)(F)F` [Example 24, N-(4-((2-amino-3-chloropyridin-4-yl)oxy)-3-fluorophenyl)-1-(3-ethoxypyridin-2-yl)-5-(trifluoromethyl)-1H-pyrazole-4-carboxamide], the IC50 against cMET fell in the range of 500 to 5000 nM; on RON, 50 to 500 nM.

For the compound `Nc1cc(Oc2ccc(NC(=O)c3cnn(-c4ncccc4F)c3C(F)(F)F)cc2F)ccn1` [Example 31, N-(4-((2-aminopyridin-4-yl)oxy)-3-fluorophenyl)-1-(3-fluoropyridin-2-yl)-5-(trifluoromethyl)-1H-pyrazole-4-carboxamide], the IC50 on cMET was over 5000 nM; against RON, under 50 nM.

On to `Cn1cc(-n2ncc(C(=O)Nc3ccc(Oc4ccnc(N)c4Cl)c(F)c3)c2C(F)(F)F)cn1` [Example 39, N-(4-((2-amino-3-chloropyridin-4-yl)oxy)-3-fluorophenyl)-1′-methyl-5-(trifluoromethyl)-1′H-[1,4′-bipyrazole]-4-carboxamide], for which the IC50 on cMET was over 5000 nM; against RON, 50 to 500 nM.

Regarding `Nc1nccc(Oc2ccc(NC(=O)c3cnn(-c4ncccc4C(F)(F)F)c3C(F)(F)F)cc2F)c1Cl` [Example 11, N-(4-((2-amino-3-chloropyridin-4-yl)oxy)-3-fluorophenyl)-5-(trifluoromethyl)-1-(3-(trifluoromethyl)pyridin-2-yl)-1H-pyrazole-4-carboxamide], the IC50 at cMET lay within 500 to 5000 nM; at RON, 50 to 500 nM.
